Reference: US20150031686A1, “PHENYL-OXAZOLYL DERIVATIVES, PREPARATION METHOD THEREOF, AND RELATED APPLICATION OF THE PHENYL-OXAZOLYL DERIVATIVES AS AN IMPDH INHIBITOR” (INSTITUTE OF MEDICINAL BIOTECHNOLOGY, CHINESE ACADEMY OF …, priority 2012, published 2015)
Converted amounts (≈) assume the structure as drawn.

Legend:
[1] = test system: IMPDH; test: IMPDH inhibition activity (A340, IMP substrate, NAD); format: biochemical; details: compound at 10 μg/mL
Procedure: Measurement of IMPDH Inhibitor Activity
In 96-well plates, use IMP as the substrate and NAD, NADH as chromogenic agents to determine the activity of the compounds described in this invention as IMPDH inhibitor. Add 2 μl of each of the tested sample solution, 20 μl enzyme extract and 30 μl IMP into a sample well in the 96-well plates; 2 μl DMSO and 30 μl IMP solution into a control well; 2 μl DMSO and 20 μl IMPDH buffer instead of the enzyme extract and 30 μl IMP solution into a blank well. Keep plates at constant 37° C. for 15 min, measure absorbance values A340 (OD1) of the solutions in various wells; subsequently, add into each well with 50 μl NAD, keep at constant 37° C. for 50 min, then measure A340 (OD2) values. Calculate IMPDH inhibition rates of samples as follows: Inhibition (%)=[(OD2−OD1)control−(OD2−OD1)Sample]/[(OD2−OD1)control−(OD2−OD1)Blank]×100%.

[2] = test system: Coxsackie virus type B3 (COX-B3); test: Anti-Coxsackie virus type B3 (COX-B3) activity, CPE in Vero cells; format: cell-based; details: Reed-Muench
Procedure: (§1) With Vero (African green monkey kidney) cells as viral hosts, inhibitory effects of the compounds of present invention on the grades of pathological lesions by coxsackievirus B3 (COX-B3), B6 (COX-B6) viruses in Vero cells were determined. The measured results of viral inhibitory activity of the compounds are shown in Table 3 and Table 4; wherein RBV is the control drug ribavirin. The inhibitory activities of the measured compounds against coxsackievirus B3, B6 were stronger than the control.
(§2) Screening of Anti-B3, B6 Type Coxsackie Viruses (COX-B3, COX-B6) Activity of the Samples
(§3) Prepare stock solutions of COX-B3 (or COX-B6) virus strains as well as tested compounds in DMSO before use. Before tests, dilute the stock solution with culture solution into a certain concentration and then dilute 3 times to make a total of eight dilutions. Use ribavirin (RBV) as positive control. Test procedures are as follows: seed Vero cells into 96-well culture plates, infect with 10^−5 Coxsackie virus of B3 (or B6) type, 24 hours later; adsorb subsequently for 2 hours, then discard the virus solution, add in the sample compounds and the positive control according to the abovementioned dilutions, set cell control wells and virus control wells simultaneously. When the cytopathic effect (CPE) of cells in the virus control wells reach 4+, observe CPE of the cells in each group. Use Reed-Muench method to calculate 50% inhibitory concentration (IC50) of the sample compounds against coxsackie virus B3 (or B6) type.

[3] = test system: Coxsackie virus type B6 (COX-B6); test: Anti-Coxsackie virus type B6 (COX-B6) activity, CPE in Vero cells; format: cell-based; details: Reed-Muench
Procedure: as §1, §2, §3

[4] = test system: human hepatoma cell HepG2; test: In vitro human hepatoma cell HepG2 inhibitory activity (MTT); format: cell-based; details: Homo sapiens, HepG2, 48 h
From the text: (§4) According to the progress in the studies on anticancer drugs using IMPDH as a target, the present invention measured inhibitory activities of the compounds of present invention against human hepatoma cell HepG2 and human lung adenocarcinoma cell A549, respectively, the measured results are shown in Table 5:
In Vitro Human Hepatoma Cell HepG2 Inhibitory Activity Measurement
Collect well growing tumor cells, prepare 6×10^4/ml cell suspension in RPMI-1640 or DMEM culture medium containing 10% FBS, seed in 96-well plates, 100 μl suspension each well, incubate at 37° C. under 5% CO2 atmosphere for 24 h, add the test solution (final concentration of drug: 0.625, 1.25, 2.5, 5.0, 10 μg/ml), for each concentration set three parallel holes, set positive control (cisplatin 10, 1, 0.1 μg/ml) and a blank control simultaneously. After culture for 48 h discard the supernatants, add into each well 10 μl MTT solution (5 mg/ml, prepared with RPMI-1640 medium), continue culturing for 4 It, add into each hole 100 μl acidified isopropanol cell lysate, culture overnight, measure absorbance (A) values with Bio-Tek MQX200 type microplate reader with the detection wavelength at 540 nm, and reference wavelength 450 nm. Calculate the inhibition rate as follows: inhibition rate=(Ablank−Asample)/Ablank control×100%. Use Graphpad Prism 5 statistical software to calculate IC50.

[5] = test system: human lung adenocarcinoma cell A549; test: In vitro human lung adenocarcinoma cell A549 inhibitory activity (MTT); format: cell-based; details: Homo sapiens, A549, 48 h
From the text: as §4
In Vitro Human Lung Adenocarcinoma Cell A549 Inhibitory Activity Measurement
Cell lines: human lung adenocarcinoma cell A549. Collect well growing tumor cells, prepare cell suspension with Ham's F12 culture solution containing 10% fetal calf serum medium, seed the suspension in 96-well plates, each well 100 μl suspension at 5000 cells/well, incubate at 37° C., under 5% CO2 atmosphere, 24 h later, add 2×drug solution […], each concentration in three parallel holes, set the blank control simultaneously. After culture for 48 h, add 20 μl (5 mg/ml) MTT to each well, culture 4 h, discard the supernatants. Measure absorbance (A) values using Bio-Rad 680 microplate reader at a detection wavelength of 570 nm, the survival rate (%) is calculated as follows: AsampleAblank control×100%. Use statistical software Graphpad Prism5 to calculate IC50. After primary screening of all samples, adjust the concentration gradient of the samples with IC50<100 μg/ml to do additional screenings, which are carried out with two parallel determinations.

[6] = test system: mouse spleen cell; test: Mouse spleen cell proliferation inhibiting activity; format: cell-based; details: mouse spleen cells
From the text: The present invention also provides the results of experimental studies on the biological activity of said compounds.

Row | SMILES | inhibition rate (%) 10 μg/mL [1] [%] | IC50 [2] [µg/mL] | IC50 [3] [µg/mL] | IC50 [4] [µg/mL] | IC50 [5] [µg/mL] | IC50 [6] [µg/mL]
1 | COc1cc(NCc2cccs2)ccc1-c1cnco1 [Compound 1, N-(thien-2-ylmethyl)-3-methoxy-4-(oxazol-5-yl) aniline] | 65.7 | 0.44 (≈ 1.54 µM) | 0.44 (≈ 1.54 µM) | 0.95 (≈ 3.32 µM) | – | –
2 | COc1cc(NCc2ccc(C)s2)ccc1-c1cnco1 [Compound 2, N-(5-methylthien-2-ylmethyl)-3-methoxy-4-(oxazol-5-yl) aniline] | 68.7 | 0.23 (≈ 0.766 µM) | 0.63 (≈ 2.1 µM) | 7.95 (≈ 26.5 µM) | 18.6 (≈ 61.9 µM) | –
3 | CCc1ccc(CNc2ccc(-c3cnco3)c(OC)c2)s1 [Compound 3, N-(5-ethylthien-2-ylmethyl)-3-methoxy-4-(oxazol-5-yl) aniline] | – | 0.35 (≈ 1.11 µM) | 1.43 (≈ 4.55 µM) | 20.9 (≈ 66.5 µM) | 10.7 (≈ 34.2 µM) | –
4 | COc1cc(NCc2ccc(Br)s2)ccc1-c1cnco1 [Compound 5, N-(5-bromothien-2-ylmethyl)-3-methoxy-4-(oxazol-5-yl) aniline] | 58.9 | 0.47 (≈ 1.29 µM) | 0.44 (≈ 1.2 µM) | 83.4 (≈ 228 µM) | 16.5 (≈ 45.2 µM) | –
5 | COc1cc(NCc2ccc(-c3ccccc3)s2)ccc1-c1cnco1 [Compound 6, N-(5-phenylthien-2-ylmethyl)-3-methoxy-4-(oxazol-5-yl) aniline] | – | 0.47 (≈ 1.3 µM) | 0.27 (≈ 0.745 µM) | 31.8 (≈ 87.6 µM) | 16.9 (≈ 46.6 µM) | –
6 | COc1cc(NCc2ccc(C(=O)O)s2)ccc1-c1cnco1 [Compound 7, 5-(3-methoxy-4-oxazol-5-yl-anilinomethyl)-thien-2-yl carboxylic acid] | – | > 66.7 | 18.5 (≈ 56 µM) | > 100 | > 100 | –
7 | COc1cc(NCc2cc3ccccc3s2)ccc1-c1cnco1 [Compound 10, N-(benzothien-2-ylmethyl)-3-methoxy-4-(oxazol-5-yl) aniline] | – | 0.27 (≈ 0.803 µM) | 0.36 (≈ 1.07 µM) | 21.7 (≈ 64.5 µM) | 26.8 (≈ 79.5 µM) | –
8 | COc1cc(NCc2ccsc2)ccc1-c1cnco1 [Compound 11, N-(thien-3-ylmethyl)-3-methoxy-4-(oxazol-5-yl) aniline] | 69.6 | 0.44 (≈ 1.54 µM) | 1.33 (≈ 4.64 µM) | 42.1 (≈ 147 µM) | 29.7 (≈ 104 µM) | –
9 | COc1cc(NCc2csc3ccccc23)ccc1-c1cnco1 [Compound 20, N-(benzothien-3-ylmethyl)-3-methoxy-4-(oxazol-5-yl) aniline] | 47.7 | 0.64 (≈ 1.9 µM) | 0.82 (≈ 2.44 µM) | 2.88 (≈ 8.57 µM) | 11.6 (≈ 34.5 µM) | –
10 | COc1ccc(-c2cnco2)cc1NCc1cccs1 [Compound 21, N-(thien-2-ylmethyl)-2-methoxy-5-(oxazol-5-yl) aniline] | – | 2.47 (≈ 8.63 µM) | 3.25 (≈ 11.3 µM) | > 100 | 122 (≈ 427 µM) | –
11 | COc1ccc(-c2cnco2)cc1NCc1ccc(C)s1 [Compound 22, N-(5-methylthien-2-ylmethyl)-2-methoxy-5-(oxazol-5-yl) aniline] | – | 0.82 (≈ 2.73 µM) | 3.83 (≈ 12.8 µM) | 9.9 (≈ 33 µM) | 26.2 (≈ 87.2 µM) | –
12 | COc1cc(NCc2ccco2)ccc1-c1cnco1 [Compound 41, N-(furan-2-ylmethyl)-3-methoxy-4-(oxazol-5-yl) aniline] | – | 0.63 (≈ 2.33 µM) | 1.88 (≈ 6.96 µM) | 40 (≈ 148 µM) | 22.8 (≈ 84.2 µM) | –
13 | COc1cc(NCc2ccc(C)o2)ccc1-c1cnco1 [Compound 42, N-(5-methylfuran-2-ylmethyl)-3-methoxy-4-(oxazol-5-yl) aniline] | 60.7 | 1.43 (≈ 5.03 µM) | 1.93 (≈ 6.79 µM) | 31.3 (≈ 110 µM) | 20.7 (≈ 72.8 µM) | –
14 | COc1cc(/N=C/c2ccc([N+](=O)[O-])o2)ccc1-c1cnco1 [Compound 49, N-(5-nitrofuran-2-methylidene)-3-methoxy-4-(oxazol-5-yl) aniline] | – | 0.82 (≈ 2.62 µM) | 1.53 (≈ 4.88 µM) | 0.897 (≈ 2.86 µM) | 4.84 (≈ 15.4 µM) | –
15 | COc1cc(NCc2c[nH]c3ccccc23)ccc1-c1cnco1 [Compound 53, N-(1H-indol-3-ylmethyl)-3-methoxy-4-(oxazol-5-yl) aniline] | 39.2 | > 2.47 | 7.41 (≈ 23.2 µM) | 22.5 (≈ 70.6 µM) | 38.6 (≈ 121 µM) | –
16 | COc1cc(NCc2scnc2C)ccc1-c1cnco1 [Compound 54, N-(4-methylthiazol-5-ylmethyl)-3-methoxy-4-(oxazol-5-yl) aniline] | – | 1.43 (≈ 4.74 µM) | 3.18 (≈ 10.6 µM) | 53.3 (≈ 177 µM) | 29.5 (≈ 97.8 µM) | –
17 | COc1cc(NCc2cncs2)ccc1-c1cnco1 [Compound 55, N-(thiazol-5-ylmethyl)-3-methoxy-4-(oxazol-5-yl) aniline] | – | 1.88 (≈ 6.54 µM) | 3.25 (≈ 11.3 µM) | 42.1 (≈ 147 µM) | 31.9 (≈ 111 µM) | –
18 | COc1cc(NCc2ccncc2)ccc1-c1cnco1 [Compound 56, N-(pyridin-4-ylmethyl)-3-methoxy-4-(oxazol-5-yl) aniline] | 37.4 | 5.75 (≈ 20.4 µM) | 4.28 (≈ 15.2 µM) | – | – | –
19 | COc1cc(NCc2cccc(C)n2)ccc1-c1cnco1 [Compound 57, N-(6-methylpyridin-2-ylmethyl)-3-methoxy-4-(oxazol-5-yl) aniline] | 45.1 | 2.47 (≈ 8.36 µM) | 1.88 (≈ 6.37 µM) | 42.8 (≈ 145 µM) | 36.7 (≈ 124 µM) | –
20 | COc1ccc(CNc2ccc(-c3cnco3)c(OC)c2)cc1 [Compound 61, N-(4-methoxybenzyl)-3-methoxy-4-(oxazol-5-yl) aniline] | 73.7 | 0.64 (≈ 2.06 µM) | 1.06 (≈ 3.42 µM) | 36.2 (≈ 117 µM) | 29.4 (≈ 94.8 µM) | –
21 | COc1cc(NC/C=C/c2ccccc2)ccc1-c1cnco1 [Compound 62] | – | 0.63 (≈ 2.06 µM) | 1.43 (≈ 4.67 µM) | > 100 | 32 (≈ 105 µM) | –
22 | COc1ccccc1/C=C/CNc1ccc(-c2cnco2)c(OC)c1 [Compound 63] | – | 0.47 (≈ 1.4 µM) | 2.47 (≈ 7.34 µM) | 19.4 (≈ 57.5 µM) | 14.1 (≈ 42 µM) | 2.22 (≈ 6.6 µM)
23 | COc1cc(/N=C/C=C/c2ccccc2)ccc1-c1cnco1 [Compound 65, N-(phenylpropen-1-ylidene)-3-methoxy-4-(oxazol-5-yl)-aniline] | 32.0 | 1.23 (≈ 4.04 µM) | 5.75 (≈ 18.9 µM) | – | – | –
